Source: paper PMC9356065, “Novel psoralen derivatives as anti-breast cancer agents and their light-activated cytotoxicity against HER2 positive breast cancer cells” (Scientific Reports, 2022)

Experiments:
[1] = Inhibition of superoxide radical formation by xanthine/xanthine oxidase (XXO); type: biochemical
Text: 1. […]

MCF-7 = details: Fig. 1d; cited from earlier work
MDA-MB-231 = assay: MTT cytotoxicity, 48 h, without UVA; type: cell-based; details: Homo sapiens, MDA-MB-231, light or radiation study; for inhibition at 50 µg/mL: I = %inhibition lower than 50%, read-out: Cytotoxic activity MDA-MB-231 %Inhibition; for IC50: hormone-independent breast cancer, read-out: Cytotoxic activity MDA-MB-231 IC50
Experimental: (§1) MDA-MB-231 (triple-negative breast cancer) was obtained from M.D. Anderson Cancer Center, Houston, TX, USA). T47-D (hormone-dependent breast carcinoma), SK-BR-3 (human HER2+ breast cancer), and MRC-5 (normal embryonic lung fibroblast) were obtained from the American Type Culture Collection (ATCC, Manassas, VA, USA).
(§2) The cytotoxic effect of tested compounds was evaluated in two breast cancer cell lines, MDA-MB-231 and T47-D. Number of survival cells after exposure to tested compounds for 48 h was determined by MTT assay, as previously described.

T47-D = assay: MTT cytotoxicity, 48 h, without UVA; type: cell-based, human; details: for IC50 / inhibition at 50 µg/mL: Homo sapiens, T47D, light or radiation study, 48 h, without UVA; for IC50: hormone-dependent breast cancer, read-out: Cytotoxic activity T47-D IC50; for Selectivity Index (SI): SI = IC50 for MRC-5/IC50 for T47-D; for inhibition at 50 µg/mL: I = %inhibition lower than 50%, read-out: Cytotoxic activity T47-D %Inhibition
Experimental: Additionally, the cytotoxicity towards normal cells, human embryonal lung fibroblast cell MRC-5 was also assessed.
as §1, §2

aromatase (CYP19) = target: T1, aromatase (CYP19) (Homo sapiens, UniProt P11511); assay: Inhibition of aromatase (AIA); type: biochemical; details: for inhibition at 12.5 µM: I = %inhibition lower than 50%, read-out: Aromatase inhibitory activity %Inhibition
T1 sequence (P11511 1-503): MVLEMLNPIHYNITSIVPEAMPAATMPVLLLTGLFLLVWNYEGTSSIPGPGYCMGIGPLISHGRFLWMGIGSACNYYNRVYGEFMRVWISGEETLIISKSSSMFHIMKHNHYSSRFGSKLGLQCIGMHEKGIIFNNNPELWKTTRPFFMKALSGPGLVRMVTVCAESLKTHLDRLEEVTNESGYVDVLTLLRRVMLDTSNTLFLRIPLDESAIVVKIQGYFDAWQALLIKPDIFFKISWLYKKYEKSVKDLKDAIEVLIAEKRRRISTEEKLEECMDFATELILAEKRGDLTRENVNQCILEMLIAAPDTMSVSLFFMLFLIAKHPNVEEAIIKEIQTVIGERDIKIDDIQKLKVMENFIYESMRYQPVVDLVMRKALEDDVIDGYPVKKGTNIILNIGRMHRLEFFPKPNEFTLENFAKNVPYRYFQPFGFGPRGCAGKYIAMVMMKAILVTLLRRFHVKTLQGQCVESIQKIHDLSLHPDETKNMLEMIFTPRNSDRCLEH
Experimental: Estrogens are the critical risk factor for breast cancer initiation and progression and the aromatase enzyme involves in the final step conversion of androgens to estrogens[21],[22]. […] In this study, the synthesized psoralen derivatives were also tested for aromatase inhibitory activity (AIA) which is considered to be one of chemopreventive mechanisms for hormone dependent breast cancer.
Inhibition of the aromatase was performed using the method designed by Stresser et al.[39].

[2] = Scavenging of diphenyl-picryl-hydrazyl radicals (DPPH); details: for DPPH %Inh: screening concentration 250 µM
Text: 1. Chemoprevention activity

[3] = tested on: differentiated HL-60 cells; assay: Inhibition of TPA-induced superoxide anion radical generation (HL-60 Antioxidant); type: cell-based, human; details: screening concentration 100 µM; for inhibition at 100 µM: Homo sapiens, HL-60, read-out: HL-60 Antiox. %Inh
Text: Inhibition of 12-O-tetradecanoylphorbol-13-acetate (TPA)-induced superoxide anion radical generation in differentiated HL-60 cells (HL-60 Antioxidant) TPA-induced superoxide anion radical formation was detected in differentiated HL-60 cells by photometric determination of cytochrome c reduction as previously described by Gerhäuser et al., 2003.ii Superoxide dismutase (SOD;15U) was a positive control. […]

| Compound | inhibition at 12.5 µM (aromatase (CYP19)) [%] | melting point [°C] | inhibition at 50 µg/mL (MDA-MB-231) [%] | DPPH %Inh [2] [%] | inhibition at 100 µM [3] [%] | also measured |
| --- | --- | --- | --- | --- | --- | --- |
| O=C(O)c1cc(O)c(O)c(O)c1 [Gallic acid, reference compound] |  |  |  |  |  | IC50 ([1]; positive control, read-out: XXO IC50 (standard)): 2800 ± 100 nM |
| CCNC(=S)Nc1c2ccoc2c(OC)c2oc(=O)ccc12 [IVa] |  |  |  |  |  | anti-cancer activity (MCF-7) (MCF-7): Inactive |
| COc1c2occc2c(NC(=O)c2ccc(C(F)(F)F)cc2)c2ccc(=O)oc12 [3d, N-(9-Methoxy-7-oxo-7H-furo[3,2-g]chromen-4-yl)-4-(trifluoromethyl)benzamide] | 10 | 284 to 286 | 35 | 7 |  | fold superiority of SI over tamoxifen citrate (T47-D): ≥ 2.8 fold; IC50 (T47-D): 13.6 ± 0.26 µM; Selectivity Index (SI) (T47-D): > 9.1; HL-60 Antiox. %Inh [3]: Toxic |
| COc1c2occc2c(NCc2ccc(Br)cc2)c2ccc(=O)oc12 [4b, 4-((4-Bromobenzyl)amino)-9-methoxy-7H-furo[3,2-g]chromen-7-one] |  | 150 to 151 |  |  |  | IC50 (MDA-MB-231): 94.4 ± 4.77 µM; fold superiority of SI over tamoxifen citrate (T47-D): ≥ 3.7 fold; IC50 (T47-D): 10.4 ± 0.79 µM; Selectivity Index (SI) (T47-D): > 12.0; IC50 (aromatase (CYP19); read-out: Aromatase inhibitory activity IC50): 900 ± 200 nM; IC50 ([2]; read-out: DPPH IC50): 166 µM; HL-60 Antiox. %Inh [3]: Toxic |
| COc1c2occc2c([N+](=O)[O-])c2ccc(=O)oc12 [compound 1, 9-Methoxy-4-nitro-7H-furo[3,2-g]chromen-7-one] | 34 | 237 to 238 | 39 | 5 | 1 | IC50 (T47-D): > 100 µM |
| O=C1O[C@H]([C@@H](O)CO)C(O)=C1O [Ascorbic acid, reference compound] |  |  |  |  |  | IC50 ([2]; half-maximal scavenging concentration, reference compound, read-out: DPPH IC50 (standard)): 43.1 µM |
| COc1c2occc2c(NC(=O)c2ccc(Br)cc2)c2ccc(=O)oc12 [3c, 4-Bromo-N-(9-methoxy-7-oxo-7H-furo[3,2-g]chromen-4-yl)benzamide] | 13 | 293 to 294 |  | 6 |  | IC50 (MDA-MB-231): 91.3 ± 7.84 µM; IC50 (T47-D): 10.1 ± 0.53 µM; Selectivity Index (SI) (T47-D): > 11.9; HL-60 Antiox. %Inh [3]: Toxic; XXO %Inh ([1]; screening concentration 500 µM): 25% |
| COc1c2occc2c(N)c2ccc(=O)oc12 [compound 2, 4-Amino-9-methoxy-7H-furo[3,2-g]chromen-7-one] | 9 | 238 to 239 | 3 | 23 | 0 | inhibition at 50 µg/mL (T47-D): 28% |
| COc1c2occc2c(N=Cc2cccs2)c2ccc(=O)oc12 [II] |  |  |  |  |  | anti-cancer activity (MCF-7) (MCF-7): Inactive |
| COc1c2occc2c(NC(=S)NCc2ccccc2)c2ccc(=O)oc12 [IVb] |  |  |  |  |  | anti-cancer activity (MCF-7) (MCF-7): Inactive |
| COc1c2occc2c(N2C(=O)CSC2c2ccc(Br)cc2)c2ccc(=O)oc12 (stereo not drawn) [III] |  |  |  |  |  | anti-cancer activity (MCF-7) (MCF-7): Inactive |

Continued, in another order:

| inhibition at 12.5 µM (aromatase (CYP19)) [%] | melting point [°C] | Compound | inhibition at 50 µg/mL (MDA-MB-231) [%] | DPPH %Inh [2] [%] | inhibition at 100 µM [3] [%] | also measured |
| --- | --- | --- | --- | --- | --- | --- |
| 6 | 276 to 277 | COc1c2occc2c(NC(=O)c2ccc(F)cc2)c2ccc(=O)oc12 [3b, 4-Fluoro-N-(9-methoxy-7-oxo-7H-furo[3,2-g]chromen-4-yl)benzamide] | 34 | 3 | 1 | inhibition at 50 µg/mL (T47-D): 49% |
| 3 | 220 to 222 | COc1c2occc2c(NC(=O)c2ccccc2)c2ccc(=O)oc12 [3a, N-(9-Methoxy-7-oxo-7H-furo[3,2-g]chromen-4-yl)benzamide] | 25 | 6 | 3 | inhibition at 50 µg/mL (T47-D): 45% |
| 8 | 213 to 214 | COc1c2occc2c(NC(=O)c2cccs2)c2ccc(=O)oc12 [3h, N-(9-Methoxy-7-oxo-7H-furo[3,2-g]chromen-4-yl) thiophene-2-carboxamide] | 8 | 6 | 24 | inhibition at 50 µg/mL (T47-D): 25% |
